Assays:
Test in all cases: relative viability (nuclei count vs DMSO), 5 days (fraction); higher = more cells survive
Pazopanib + Navitoclax = compound: Cc1ccc(Nc2nccc(N(C)c3ccc4c(C)n(C)nc4c3)n2)cc1S(N)(=O)=O [Pazopanib] + CC1(C)CCC(c2ccc(Cl)cc2)=C(CN2CCN(c3ccc(C(=O)NS(=O)(=O)c4ccc(N[C@H](CCN5CCOCC5)CSc5ccccc5)c(S(=O)(=O)C(F)(F)F)c4)cc3)CC2)C1 [Navitoclax] (partner 0.5 µM)
Summary of the method: (§1)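 Values are medians from duplicate plates. Each reflects relative viability, defined as the nuclei count of treated wells over that of vehicle wells. Lung cancer cell lines in 1536-well plates were pin-tool dosed one day after seeding with one drug alone or with a fixed anchor-drug dose plus five library-drug doses (not always all listed) in √10 steps, then fixed, stained and imaged at 4× after 5 days.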

Pazopanib + Luminespib = compound: Cc1ccc(Nc2nccc(N(C)c3ccc4c(C)n(C)nc4c3)n2)cc1S(N)(=O)=O [Pazopanib] + CCNC(=O)c1noc(-c2cc(C(C)C)c(O)cc2O)c1-c1ccc(CN2CCOCC2)cc1 [Luminespib] (partner 0.01 µM)
Summary of the method: as §1

Pazopanib + Dasatinib = compound: Cc1ccc(Nc2nccc(N(C)c3ccc4c(C)n(C)nc4c3)n2)cc1S(N)(=O)=O [Pazopanib] + Cc1nc(Nc2ncc(C(=O)Nc3c(C)cccc3Cl)s2)cc(N2CCN(CCO)CC2)n1 [Dasatinib] (partner 0.075 µM)
Summary of the method: as §1

Pazopanib + AZD7762 = compound: Cc1ccc(Nc2nccc(N(C)c3ccc4c(C)n(C)nc4c3)n2)cc1S(N)(=O)=O [Pazopanib] + NC(=O)Nc1cc(-c2cccc(F)c2)sc1C(=O)N[C@H]1CCCNC1 [AZD7762] (partner 0.2 µM)
Summary of the method: as §1

Cell Line	relative viability (Pazopanib + Navitoclax; first compound 0.03162 µM)	relative viability (Pazopanib + Navitoclax; first compound 0.1 µM)	relative viability (Pazopanib + Navitoclax; first compound 0.3162 µM)	relative viability (Pazopanib + Navitoclax; first compound 1 µM)	relative viability (Pazopanib + Luminespib; first compound 0.01 µM)	relative viability (Pazopanib + Luminespib; first compound 0.03162 µM)	relative viability (Pazopanib + Luminespib; first compound 0.1 µM)	relative viability (Pazopanib + Luminespib; first compound 0.3162 µM)	relative viability (Pazopanib + Luminespib; first compound 1 µM)	relative viability (Pazopanib + Dasatinib; first compound 0.01 µM)	relative viability (Pazopanib + Dasatinib; first compound 0.03162 µM)	relative viability (Pazopanib + Dasatinib; first compound 0.1 µM)	relative viability (Pazopanib + Dasatinib; first compound 0.3162 µM)	relative viability (Pazopanib + Dasatinib; first compound 1 µM)	relative viability (Pazopanib + AZD7762; first compound 0.03162 µM)	relative viability (Pazopanib + AZD7762; first compound 0.1 µM)	relative viability (Pazopanib + AZD7762; first compound 0.3162 µM)	relative viability (Pazopanib + AZD7762; first compound 1 µM)	relative viability (Pazopanib + Navitoclax; first compound 0.01 µM)	relative viability (Pazopanib + AZD7762; first compound 0.01 µM)
LCLC-97TM1	0.365	0.427	0.547	0.655	0.817	0.839	0.831	0.925	0.736	0.771	0.854	0.888	0.847	0.785	0.241	0.248	0.303	0.188		
LK-2	0.925	0.863	0.788	0.821		0.208	0.176	0.168	0.219		0.305	0.317	0.373	0.314	0.411	0.398	0.451	0.354	0.67	0.283
LOU-NH91	0.701	0.732	0.843	0.766	0.335	0.336	0.331	0.324	0.275	0.49	0.523	0.559	0.603	0.565	0.758	0.78	0.836	0.815	0.718	0.653
LU99A	0.819	0.769	0.773	0.843	0.245	0.226	0.244	0.279	0.258	0.425	0.545	0.622	0.54	0.503	0.347	0.466	0.343	0.384	0.697	
LXF-289	1.03	0.95	0.934	0.991	0.74	0.713	0.69	0.67	0.729	0.224	0.236	0.19	0.156	0.242	1.15	1.12	1.11	1.06	0.994	1.26
NCI-H23	0.843	1.16	1.02	1.06	0.227	0.209	0.219	0.226	0.231	0.722	0.852	0.94	0.869	0.894	0.257	0.221	0.374	0.271	0.899	0.223
NCI-H322M	1.19	1.27	1.36	1.24	0.956	0.954	0.871	0.945	0.844	0.265	0.258	0.257	0.275	0.277	0.539	0.617	0.617	0.669	1.03	0.559
NCI-H441	0.493	1.12	0.553	0.765	0.343	0.485	0.311	0.274	0.317	0.451	0.612	0.643	0.565	0.658	1.14	1.08	1.09	1.12	0.516	1.31
NCI-H460	1.19	1.34	1.16	1.15	0.0281	0.0326	0.033	0.0276	0.0432	0.274	0.472	0.566	0.603	0.758	0.619	0.551	0.637	0.597	0.849	0.766
NCI-H596	0.997	0.978	0.924	0.837		1.05	1.02	0.908	1.19		0.617	0.454	0.6	0.575	1.1	1.03	1.16	1.03	0.843	0.925
NCI-H647	1.08	1.21	1.17	1.16	0.244	0.124	0.199	0.217	0.14	0.135	0.21	0.224	0.243	0.25	0.635	0.469	0.428	0.546	1.14	0.373
NCI-H727	0.417	0.656	0.513	0.572	0.346	0.634	0.381	0.266	0.262	0.402	0.378	0.394	0.444	0.413		0.609	0.663	0.562	0.506	0.618
NCI-H838	1.22	1.21	1.24	1.26	0.351	0.351	0.282	0.21	0.322	0.273	0.278	0.297	0.278	0.334	0.911	1.04	0.909	0.946	1.1	1.04
NCI-H1355	0.899	1.09	1.07	0.979	0.695	0.709	0.816	0.675	0.838	0.443	0.549	0.773	0.639	0.686	0.802	0.827	0.727	0.719		0.71
NCI-H1395	1.25	1.24	1.33	1.28	0.566	0.588	0.642	0.781	0.62	0.398	0.487	0.362	0.452	0.432	0.366	0.389	0.38	0.387	1.15	0.36
NCI-H1703	0.925	0.344	0.256	0.287											0.12	0.16	0.14	0.125	0.865	
NCI-H2342					0.671	0.736	0.612	0.759	0.588	0.303	0.339	0.305	0.297	0.278	0.484	0.562	0.521	0.474		0.455
SW 900					0.153	0.177	0.177	0.177	0.164	0.539	0.731	0.596	0.66	0.543	0.566		0.635	0.605		0.462

Reference: the supplement of paper PMC10307832
